Results reported in patent US6379400B1, “Dye compositions and methods of dyeing keratin fibers” (Wella Aktiengesellschaft, priority 1998, dated 2002).

COCCNc1ccc([N+](=O)[O-])cc1 [Example 1, N-(2-methoxyethyl)-4-nitro-phenylamine]
melting point: 85 to 87 °C

COCCNc1ccc([N+](=O)[O-])cc1C [Example 2, N-(2-methoxyethyl)-2-methyl-4-nitrophenylamine]
melting point: 97 to 100 °C
